Experimental data published in US10239878B2, “Macrocyclic ligands with pendant chelating moieties and complexes thereof” (LUMIPHORE, INC., priority 2016, dated 2019).

Experiments:
[1] = 250 mM DTPA competition experiments (kinetic stability of Eu complexes); format: physicochemical; conditions: 33⋅Eu versus 16⋅Eu, 43⋅Eu versus 40⋅Eu
Source text: From these experiments, it is clear that 43⋅Eu is remarkably stable to a wide range of competitive metal ions and chelators. The competitor concentrations mentioned above are a good way to assess the kinetic stability of the complex in various assay conditions. DTPA is an exceptionally good ligand for lanthanide ions, and thus it is not typically used in practical assays. However, DTPA competition offers an excellent way to benchmark the kinetic stability of the complexes reported here. […] In order to compare the kinetic stability of the complexes reported here, a 750 mM stock solution (25 mL) of DTPA was prepared by dissolving DTPA (7.375 g, 18.75 mmol) into water (20 mL) containing potassium hydroxide (5.26 g, 93.75 mmol). The pH of the DTPA solution was adjusted to pH=7.6 by addition of concentrated hydrochloric acid, and then the solution was diluted to a final volume of 25 mL to give a 750 mM DTPA stock solution at pH=7.6. HPLC purified europium complexes of 16, 29, 33, 40, and 43 were separately diluted to 11 μM in TBS buffer, pH=7.6. For each DTPA competition experiment, 1 mL of the 750 mM DTPA solution was added to 2 mL of the 11 μM europium complex solution. The luminescence at 612 nm (365 nm excitation) was monitored for these five separate solutions containing 250 mM DTPA and 7.1 μM of each europium complex as a function of time.

[2] = Stability of 43⋅Eu luminescence in the presence of ca. 25 mM competitors; format: physicochemical
Protocol: In order for a luminescent metal complex to be useful in a practical sense, it must be stable in the presence of common competitive metal cations and chelating ligands. We measured the stability of 43 ⋅Eu (ca. 7 μM) dissolved in TBS buffer, with various competitors present at ca. 25 mM concentration. Specifically, manganese dichloride tetrahydrate (14.8 mg, 74.8 μmol) was dissolved into TBS buffer (100 μL), and added to an aliquot of 43⋅Eu (3 mL), making the final concentration of Mn(II) 24.1 mM. Magnesium chloride hexahydrate (33.6 mg, 165 μmol) was dissolved into TBS buffer (200 μL), and 100 μL was added to an aliquot of 43⋅Eu (3 mL), making the final concentration of Mg(II) 26.7 mM. Calcium chloride hexahydrate (55.8 mg, 255 μmol) was dissolved into TBS buffer (300 μL), and 100 μL was added to an aliquot of 43 ⋅Eu (3 mL), making the final concentration of Ca(II) 27.4 mM. For DTPA, first KOH (95.9 mg, 1.71 mmol) was dissolved into 1 mL of water, and 389 μL of this basic solution (5 equivalents) was used to dissolve DTPA (52.3 mg, 133 μmol). Then, 219 μL of this DTPA solution was added to an aliquot of 43⋅Eu (3 mL), making the final concentration of DTPA 23.4 mM. EDTA (0.5 M, pH=8, 150 μL) was added to an aliquot of 43 ⋅Eu (3 mL), making the final concentration of EDTA 23.8 mM. For phosphate competition, the methanolic stock of 43⋅Eu was diluted to ca. 7 μM in 25 mM phosphate buffer (pH=8).

reduction in kinetic stability upon introduction of the spermine-based sidearm [1]: ~2 fold | change in sample brightness ([2]; 25 mM phosphate buffer pH=8, 24 hours): no detectable change | change in sample brightness ([2]; Ca(II) 27.4 mM, TBS buffer, 24 hours): no detectable change | brightness remaining (of the original brightness) ([2]; DTPA 23.4 mM, TBS buffer, after 24 hours): 83% | brightness remaining ([2]; EDTA 23.8 mM, TBS buffer, 24 hours): 96% | change in sample brightness ([2]; Mg(II) 26.7 mM, TBS buffer, 24 hours): no detectable change | brightness remaining ([2]; Mn(II) 24.1 mM, TBS buffer, 24 hours): 89%
Structure (SMILES): NCCOCCNC(=O)C1CCCN(C(=O)c2cccc(=O)n2[O-])CCCNC(=O)c2ccc(n([O-])c2=O)C(=O)NC2COCC2NC(=O)c2ccc(c(=O)n2[O-])C(=O)NCCCN1C(=O)c1cccc(=O)n1[O-].[Eu+3] (mixture of isomers) [43⋅Eu]
